Results taken from US20060167098A1, “Method for the treatment of diseases linked to an accumulation of triglycerides and cholesterol” (Institut National De La Sante ET De LA Recherche Medicale …, priority 2003, published 2006).

Assay: Body fat mass by DEXA in Swiss mice fed with a western diet
Type: in vivo
Description: In our investigations, two kinds of diet were used: 1—a standard diet (A04 diet from UAR) containing 3% of lipids and bringing 2900 kcal per kg; 2—a western diet (from UAR too) containing 16% of lipids and bringing 4300 kcal per kg.
D,L-β-Aminoisobutyric acid (BAIBA) was purchased from Sigma-Aldrich. BAIBA has been administered in drinking water at the dose of 100 mg/kg/day or 500 mg/kg/day for 6 weeks, 2 months or 4 months according to the experiments.
The in vivo determination of body fat mass in anesthetized mice has been performed by “DEXA” (Dual Energy X-ray Absorptiometry) (Pietriobelli A., Formica C., Wang Z., Heymsfield S. B., 1996, Am. J. Physiol. 271 (Endocrinol. Metab. 34): E941-E951)). […] It is noteworthy that DEXA also gives for each investigated animal its lean mass that is the total amount of water and proteins (in grams) in the body (excluding the head). Therefore, for a given animal, DEXA allows the determination of the percentage of body fat which is its body fat mass divided by the sum of its body lean and fat masses (fat mass/(lean mass+fat mass)). The “DEXA” apparatus was a Piximus® from Lunar Corporation (Madison, Wis.). Mice were anesthetized thanks to a mixture of xylazine and ketamine. […]
In a third series of experiments, we sought to determine as to whether of 100 mg/kg/day of β-aminoisobutyric acid (BAIBA) would be able to decrease body fat mass in Swiss mice fed with a western diet (i.e. hypercaloric diet). For this purpose, young (4 weeks old at T0) Swiss mice were fed with a hypercaloric western diet (WD), with or without BAIBA in the drinking water (8 mice in each group). For comparison, the experiment included a group of mice (n=8) fed with a standard diet (SD). DEXA was performed one day before the beginning of the treatment (T0) and then two, four and six weeks after the initiation of the experience (T2, T4 and T6, respectively). This allowed us to determine for each animal the variation of body parameters (e.g. fat mass, body weight) for the different periods of the treatment (T0-T2, T2-T4, T4-T6 and T0-T6). For these four DEXA determinations (T0 to T6), mice were not fasted before measurements. In this experiment, BAIBA reduced the gain of body fat mass in Swiss mice fed with a western diet and this beneficial effect was observed from the fourth week of the BAIBA administration. This effect is illustrated in FIG. 3. […] Indeed, during the T0-T6 period control mice fed with the western diet (Controls-WD) gained 4.88±0.83 grams of body fat whereas mice fed with the same diet and receiving BAIBA (BAIBA-WD) gained 3.91±0.59 grams of body fat mass. For comparison, mice fed with the standard diet (Controls-SD) gained 3.18±0.34 grams of body fat during the entire period (T0-T6) of the experiment. • At the end of the treatment (T6), the body fat mass was 4.48±0.33, 6.21±0.85 and 5.25±0.60 grams, respectively for the Controls-SD, Controls-WD and BAIBA-WD groups of mice (15% decrease between Controls-WD and BAIBA-WD). The percentage of body fat ((fat mass)/(fat+lean mass)) was at this time 13.23±0.86, 17.96±2.04 et 15.76±1.53%, respectively in the Controls-SD, Controls-WD and BAIBA-WD groups.
Finally, we sought to determine on the very same animals as to whether fasting would be able to enhance the beneficial effect of BAIBA on body fat mass. Thus, after the fourth DEXA measurement (i.e. DEXA determination at T6), mice were allowed to recover from the anaesthesia for ca. 2 days and were then submitted to a 48-hour period of fast. A last DEXA measurement was then performed in fasted mice. […] Indeed, after the fasting period, body fat mass was 3.10±0.30, 5.40±0.75 et 4.79±0.56 grams, respectively in control mice fed the standard diet (Controls-SD), control mice fed with the western diet (Controls-WD), and mice fed with the western diet and receiving BAIBA (BAIBA-WD). […]

CC(CN)C(=O)O (racemic) [BAIBA, D,L-β-Aminoisobutyric acid]
gain of body fat mass (100 mg/kg/day, western diet, T0-T6): 3.91±0.59 grams | reduction of the gain of body fat mass (100 mg/kg/day, western diet, T0-T6, vs Controls-WD): 20% | body fat lost (100 mg/kg/day, western diet, T4-T6 period): 0.45±0.30 grams | body weight (100 mg/kg/day, western diet, after 6 weeks): 37.0±0.76 grams | percentage of body fat ((fat mass)/(fat+lean mass)) (100 mg/kg/day, western diet, at T6): 15.76±1.53% | body fat mass (100 mg/kg/day, western diet, at T6, fed): 5.25±0.60 grams | body fat mass (western diet 6 weeks, after 48-hour fasting period): 4.79±0.56 grams | decrease of the percentage of body fat (western diet 6 weeks, fasted state): 11% | decrease of the percentage of body fat (western diet 6 weeks, fed state): 15% | decrease of body fat mass between Controls-WD and BAIBA-WD (western diet, at T6): 15% | body weight (western diet, at the end of the fasting period): 33.6±0.9 grams
